Source: the supplement of paper PMC10307832

Key:
Test in all cases: relative viability (nuclei count vs DMSO), 5 days (fraction); higher = more cells survive
NVP-TAE684 + Dasatinib = compound: COc1cc(N2CCC(N3CCN(C)CC3)CC2)ccc1Nc1ncc(Cl)c(Nc2ccccc2S(=O)(=O)C(C)C)n1 [NVP-TAE684] + Cc1nc(Nc2ncc(C(=O)Nc3c(C)cccc3Cl)s2)cc(N2CCN(CCO)CC2)n1 [Dasatinib] (partner 0.075 µM)
Procedure, shortened: (§1)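 Lung cancer cell lines were pin-tool dosed in 1536-well plates on the day after seeding, with either a lone drug or a fixed anchor-drug dose plus five library-drug doses (not always all listed) in √10 steps. Nuclei were counted on 4× images after 5 days. Relative viability is the ratio of treated-well to vehicle-well nuclei counts, with each value a median of duplicate plates.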

CUDC-101 + Phenformin = compound: C#Cc1cccc(Nc2ncnc3cc(OC)c(OCCCCCCC(=O)NO)cc23)c1 [CUDC-101] + N=C(N)NC(=N)NCCc1ccccc1 [Phenformin] (partner 250 µM)
Procedure, shortened: as §1

[1] = compound: C1=CC=C2C(=C1)N=C(S2)C(C#N)C3=NC(=NC=C3)NCCC4=CN=CC=C4 + C[C@@H](Oc1cc(-c2cnn(C3CCNCC3)c2)cnc1N)c1c(Cl)ccc(F)c1Cl [Crizotinib] (partner 1 µM)
Procedure, shortened: as §1

CUDC-101 + Pemetrexed = compound: C#Cc1cccc(Nc2ncnc3cc(OC)c(OCCCCCCC(=O)NO)cc23)c1 [CUDC-101] + Nc1nc2[nH]cc(CCc3ccc(C(=O)N[C@@H](CCC(=O)O)C(=O)O)cc3)c2c(=O)[nH]1 [Pemetrexed] (partner 0.2 µM)
Procedure, shortened: as §1

| Cell Line | relative viability (NVP-TAE684 + Dasatinib; first compound 0.2 µM) | relative viability (NVP-TAE684 + Dasatinib; first compound 2 µM) | relative viability (CUDC-101 + Phenformin; first compound 0.01 µM) | relative viability (CUDC-101 + Phenformin; first compound 0.03162 µM) | relative viability (CUDC-101 + Phenformin; first compound 0.1 µM) | relative viability (CUDC-101 + Phenformin; first compound 0.3162 µM) | relative viability (CUDC-101 + Phenformin; first compound 1 µM) | relative viability ([1]; first compound 0.005 µM) | relative viability ([1]; first compound 0.05 µM) | relative viability ([1]; first compound 0.1581 µM) | relative viability ([1]; first compound 0.5 µM) | relative viability (CUDC-101 + Pemetrexed; first compound 0.01 µM) | relative viability (CUDC-101 + Pemetrexed; first compound 0.03162 µM) | relative viability (CUDC-101 + Pemetrexed; first compound 0.1 µM) | relative viability (CUDC-101 + Pemetrexed; first compound 0.3162 µM) | relative viability (CUDC-101 + Pemetrexed; first compound 1 µM) | relative viability (NVP-TAE684 + Dasatinib; first compound 0.6325 µM) | relative viability ([1]; first compound 0.01581 µM) |
| --- | --- | --- | --- | --- | --- | --- | --- | --- | --- | --- | --- | --- | --- | --- | --- | --- | --- | --- |
| LC-2-ad | 0.293 | 0.228 | 0.65 | 0.651 | 0.689 | 0.551 | 0.287 | 0.413 | 0.425 | 0.502 | 0.414 | 0.247 | 0.271 | 0.284 | 0.26 | 0.284 |  |  |
| NCI-H2023 | 0.393 | 0.114 | 0.406 | 0.379 | 0.438 | 0.481 | 0.341 | 0.592 | 0.604 | 0.706 | 0.483 | 0.255 | 0.298 | 0.201 | 0.233 | 0.183 | 0.254 | 0.568 |
| SK-LU-1 | 0.188 | 0.0928 | 0.497 | 0.441 | 0.576 | 0.593 | 0.493 |  | 0.95 | 1.16 | 0.907 | 0.948 | 1.12 | 0.948 | 0.965 | 0.947 | 0.138 | 0.853 |
| LCLC-97TM1 | 0.894 | 0.275 | 0.426 | 0.381 | 0.436 | 0.471 | 0.362 | 0.28 | 0.368 | 0.326 | 0.256 | 0.166 | 0.172 | 0.183 | 0.157 | 0.135 | 0.792 | 0.394 |
| NCI-H1915 | 0.363 | 0.255 | 0.395 | 0.361 | 0.364 | 0.349 | 0.269 | 0.718 | 0.928 | 0.994 | 0.565 | 0.495 | 0.45 | 0.45 | 0.497 | 0.455 | 0.294 | 0.955 |
| NCI-H358 | 0.162 | 0.112 | 0.378 | 0.346 | 0.32 | 0.312 | 0.193 | 0.678 | 0.533 | 0.621 | 0.609 | 0.181 | 0.187 | 0.166 | 0.161 | 0.154 | 0.136 | 0.539 |
| LK-2 | 0.236 | 0.185 | 0.369 | 0.727 | 0.411 | 0.479 | 0.15 |  | 0.216 | 0.209 | 0.238 | 0.255 | 0.28 | 0.245 | 0.207 | 0.133 | 0.243 |  |
| EPLC-272H | 0.181 | 0.0612 | 0.279 | 0.297 | 0.201 | 0.136 | 0.114 | 0.852 | 0.868 | 0.94 | 0.795 | 0.345 | 0.316 | 0.428 | 0.387 | 0.235 | 0.186 | 0.97 |
| A-427 | 0.789 | 0.554 | 0.328 | 0.347 | 0.464 | 0.502 | 0.389 | 0.69 | 0.984 | 0.951 | 0.899 | 0.954 | 0.971 | 0.982 | 0.821 | 0.763 | 0.703 | 0.979 |
| ABC-1 | 0.584 | 0.237 | 0.256 | 0.256 | 0.212 | 0.247 | 0.186 | 1.05 | 0.941 | 1.21 | 0.925 |  |  |  |  |  | 0.423 | 1.1 |
| NCI-H1793 | 0.402 | 0.328 | 0.372 | 0.239 | 0.34 | 0.442 | 0.291 |  |  |  |  | 0.75 | 0.777 | 0.663 | 0.889 | 0.494 | 0.321 |  |
| NCI-H1395 | 0.408 | 0.317 | 0.495 | 0.435 | 0.462 | 0.466 | 0.456 |  |  |  |  | 0.856 | 0.91 | 0.943 | 0.877 | 0.676 | 0.387 |  |
| NCI-H1623 | 0.514 | 0.439 | 0.565 | 0.597 | 0.539 | 0.631 | 0.457 |  |  |  |  |  |  |  |  |  | 0.502 |  |
| NCI-H2342 | 0.297 | 0.292 | 0.619 | 0.621 | 0.667 | 0.643 | 0.43 |  |  |  |  | 0.842 | 0.757 | 0.76 | 0.819 | 0.742 | 0.277 |  |
| EBC-1 |  |  |  |  |  |  |  | 0.236 | 0.189 | 0.224 | 0.22 |  |  |  |  |  |  | 0.172 |
| NCI-H727 | 0.383 | 0.232 | 0.591 | 0.476 | 0.297 | 0.604 | 0.362 | 0.793 | 0.739 | 0.836 | 0.529 |  |  |  |  |  | 0.273 | 0.803 |
| NCI-H1299 |  |  |  |  |  |  |  | 0.943 | 0.989 | 0.95 | 0.871 |  |  |  |  |  |  | 0.964 |
| Calu-6 |  |  |  |  |  |  |  | 0.479 | 0.831 | 0.907 | 0.638 |  |  |  |  |  |  | 0.771 |
| NCI-H1703 |  |  |  |  |  |  |  | 0.666 | 0.536 | 0.542 | 0.458 |  |  |  |  |  |  | 0.684 |
| NCI-H1648 |  |  |  |  |  |  |  |  |  |  |  | 0.826 | 0.744 | 0.805 | 0.741 | 0.535 |  |  |
